The values below come from patent US20250346593A1, “IMIDAZO(1,2-1)PYRIDINE DERIVATIVES AS RIPK2 INHIBITORS” (Interline Therapeutics, Inc., priority 2022, published 2025).

The test system of assay [1] is NF-κB pathway (SEAP) in THP1-Dual cells. Kind of assay: THP-1 Dual cell SEAP assay (L18-MDP stimulated). The class given is cell-based. Particulars: Homo sapiens, THP1-Dual, read-out: NFkB THP1 IC50.
Assay [2] concerns the target GST-RIPK2 fusion protein (human RIPK2 amino acids 1-310) (Homo sapiens (Human), UniProt O43353). Kind of assay: RIPK2 binding competition assay (TR-FRET, Tracer 199). A general note: TR-FRET usually uses a lanthanide donor and a delayed reading to cut background.
[3] abbreviates: read-out: RIPK2 IC50, RIPK2 binding competition assay.

For orientation: IC50 means the midpoint of a concentration-inhibition curve.

Like-named read-outs stand apart in the source and are kept apart here. Where only a bound is given, the exact number is not on record here.

Chain of GST-RIPK2 fusion protein (human RIPK2 amino acids 1-310) (O43353 1-310): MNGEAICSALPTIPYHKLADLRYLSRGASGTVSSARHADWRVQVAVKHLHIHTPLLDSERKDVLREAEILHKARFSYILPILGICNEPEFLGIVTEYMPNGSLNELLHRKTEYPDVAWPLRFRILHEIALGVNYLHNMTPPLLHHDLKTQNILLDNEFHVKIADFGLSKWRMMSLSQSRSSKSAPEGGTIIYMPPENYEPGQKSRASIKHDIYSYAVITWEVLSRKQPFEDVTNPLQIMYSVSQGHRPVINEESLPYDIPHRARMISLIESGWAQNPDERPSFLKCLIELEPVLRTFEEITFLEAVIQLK

`COc1cc2ncc(-c3ccc(N(C)C)nc3F)n2cc1S(=O)(=O)C(C)(C)C` [Example 77, 5-(6-(tert-butylsulfonyl)-7-methoxyimidazo[1,2-a]pyridin-3-yl)-6-fluoro-N,N-dimethylpyridin-2-amine]: the IC50 in assay [1] is more than 1000 nM; in assay [2] (setting [3]), more than 20 nM.

`CCCS(=O)(=O)Nc1cc(-c2cnc3cc(OC)c(S(=O)(=O)C4CC4)cn23)ccc1OC` [Example 288, N-(5-(6-(cyclopropylsulfonyl)-7-methoxyimidazo[1,2-a]pyridin-3-yl)-2-methoxyphenyl)propane-1-sulfonamide]: the half-maximal inhibitory concentration (IC50) was more than 1000 nM in assay [1] and 2.5 to 20 nM in assay [2].

`COc1cc2ncc(-c3cc(F)nc(N[C@@H](C)CCO)c3)n2cc1S(=O)(=O)C(C)(C)C` [Example 236, (3S)-3-({6-fluoro-4-[7-methoxy-6-(2-methylpropane-2-sulfonyl)imidazo[1,2-a]pyridin-3-yl]pyridin-2-yl}amino)butan-1-ol]: the results for the IC50 in assay [1] and in assay [2] (setting [3]) were less than 50 nM and less than 1 nM, respectively.

With `CCOc1cc2ncc(-c3cc(F)c(N)nc3F)n2cc1S(=O)(=O)C(C)C` [Example 119, 5-[6-ethoxy-5-(isopropylsulfonyl)-1,3a-diaza-3-indenyl]-3,6-difluoro-2-pyridylamine], the IC50 in assay [1] was more than 1000 nM; in assay [2], 2.5 to 20 nM.

Turning to `CCOc1nc(N)c(F)cc1-c1cnc2cc(OC)c(S(=O)(=O)C(C)(C)C)cn12` [Example 112, 5-(6-(tert-butylsulfonyl)-7-methoxyimidazo[1,2-a]pyridin-3-yl)-6-ethoxy-3-fluoropyridin-2-amine], the IC50 in assay [1] was more than 1000 nM; in assay [2], 2.5 to 20 nM.

For `COc1cc2ncc(-c3cc(F)c(OC)c(C(C)(C)O)c3)n2cc1S(=O)(=O)C(C)(C)C` [Example 337, 2-(5-(6-(tert-butylsulfonyl)-7-methoxyimidazo[1,2-a]pyridin-3-yl)-3-fluoro-2-methoxyphenyl)propan-2-ol], the results for the IC50 in assay [1] and in assay [2] were 250 to 1000 nM and 1 to 2.5 nM, respectively.

With `CCCS(=O)(=O)Nc1nc(-c2cnc3cc(OC)c(S(=O)(=O)C(C)(C)C)cn23)ccc1C` [Example 163, N-(6-(6-(tert-butylsulfonyl)-7-methoxyimidazo[1,2-a]pyridin-3-yl)-3-methylpyridin-2-yl)propane-1-sulfonamide], the IC50 was more than 1000 nM in assay [1] and more than 20 nM in assay [2] (setting [3]).

Take `COc1cc2ncc(-c3cnc(N)c(C)c3)n2cc1S(=O)(=O)C(C)(C)C` [Example 68, 5-(6-(tert-butylsulfonyl)-7-methoxyimidazo[1,2-a]pyridin-3-yl)-3-methylpyridin-2-amine]: the IC50 is more than 1000 nM in assay [1] and more than 20 nM in assay [2] (setting [3]).

Take `COc1cc(N)cc(-c2cnc3cc(OC)c(S(=O)(=O)C(C)(C)C)cn23)c1` [Example 46, 3-(6-(tert-butylsulfonyl)-7-methoxyimidazo[1,2-a]pyridin-3-yl)-5-methoxyaniline]: the IC50 is 50 to 250 nM in assay [1] and 2.5 to 20 nM in assay [2].

Consider `CCOc1cc2ncc(-c3cc(F)c(N)nc3C)n2cc1S(=O)(=O)C(C)C` [Example 155, 5-(7-ethoxy-6-(isopropylsulfonyl)imidazo [1,2-a]pyridin-3-yl)-3-fluoro-6-methylpyridin-2-amine], for which the values for the IC50 in assay [1] and in assay [2] (setting [3]) were more than 1000 nM and more than 20 nM, respectively.

With `COc1cc2ncc(-c3cc(F)nc(N[C@H](C)CCO)c3)n2cc1S(=O)(=O)C(C)(C)C` [Example 230, (3R)-3-({6-fluoro-4-[7-methoxy-6-(2-methylpropane-2-sulfonyl)imidazo[1,2-a]pyridin-3-yl]pyridin-2-yl}amino)butan-1-ol], the IC50 is 250 to 1000 nM in assay [1] and 2.5 to 20 nM in assay [2].

On to `COc1cc2ncc(-c3cnc(N)c(F)c3F)n2cc1S(=O)(=O)C(C)(C)C` [Example 164, 5-(6-(tert-butylsulfonyl)-7-methoxyimidazo[1,2-a]pyridin-3-yl)-3,4-difluoropyridin-2-amine], for which the IC50 in assay [1] was more than 1000 nM; in assay [2] (setting [3]) it was more than 20 nM.

For `CNc1ncc(-c2cnc3cc(OC)c(S(=O)(=O)C(C)(C)C)cn23)cc1F` [Example 94, 5-(6-(tert-butylsulfonyl)-7-methoxyimidazo[1,2-a]pyridin-3-yl)-3-fluoro-N-methylpyridin-2-amine], the IC50 in assay [1] was more than 1000 nM; in assay [2] (setting [3]), more than 20 nM.

Consider `COc1cc2ncc(-c3cc(F)nc(N4CCN(C)CC4)c3)n2cc1S(=O)(=O)C(C)(C)C` [Example 223, 1-{6-fluoro-4-[7-methoxy-6-(2-methylpropane-2-sulfonyl)imidazo[1,2-a]pyridin-3-yl]pyridin-2-yl}-4-methylpiperazine], for which the results for the IC50 in assay [1] and in assay [2] were 50 to 250 nM and 2.5 to 20 nM, respectively.

Turning to `CCCS(=O)(=O)Nc1cc(OC)cc(-c2cnc3cc(OC)c(S(=O)(=O)C(C)(C)C)cn23)n1` [Example 161, N-(6-(6-(tert-butylsulfonyl)-7-methoxyimidazo[1,2-a]pyridin-3-yl)-4-methoxypyridin-2-yl)propane-1-sulfonamide], the IC50 in assay [1] lay within 250 to 1000 nM; in assay [2] it was 2.5 to 20 nM.

Consider `COc1cc2ncc(-c3cnc(OC(F)F)c(N)c3)n2cc1S(=O)(=O)C(C)(C)C` [Example 50, 5-(6-(tert-butylsulfonyl)-7-methoxyimidazo[1,2-a]pyridin-3-yl)-2-(difluoromethoxy)pyridin-3-amine], for which the IC50 is more than 1000 nM in assay [1] and more than 20 nM in assay [2] (setting [3]).

For the molecule `COc1cc2ncc(-c3cc(F)nc(NCC4CCNC(=O)C4)c3)n2cc1S(=O)(=O)C(C)(C)C` (stereo not drawn) [Example 188, 4-(((4-(6-(tert-butylsulfonyl)-7-methoxyimidazo[1,2-a]pyridin-3-yl)-6-fluoropyridin-2-yl)amino)methyl) piperidin-2-one], the results for the IC50 in assay [1] and in assay [2] (setting [3]) were less than 50 nM and less than 1 nM, respectively.

With `COc1cn2ncc(-c3cc(OC)c(N)nc3F)c2cc1S(=O)(=O)C(C)(C)C` [Example 104, 5-(5-(tert-butylsulfonyl)-6-methoxypyrazolo[1,5-a]pyridin-3-yl)-6-fluoro-3-methoxypyridin-2-amine], the figures for the IC50 in assay [1] and in assay [2] were more than 1000 nM and 2.5 to 20 nM, respectively.

For `COc1cc2ncc(-c3ccc(N)c(F)c3)n2cc1S(=O)(=O)C(C)(C)C` [Example 20, 4-(6-(tert-butylsulfonyl)-7-methoxyimidazo[1,2-a]pyridin-3-yl)-2-fluoroaniline], the IC50 in assay [1] lay in the range of 250 to 1000 nM; in assay [2], 2.5 to 20 nM.

For the molecule `CCCS(=O)(=O)Nc1cc(-c2cnc3cc(OC)c(S(=O)(=O)C(C)(C)C)cn23)ccc1OC(F)(F)F` [Example 134, N-{5-[7-methoxy-6-(2-methylpropane-2-sulfonyl)imidazo[1,2-a]pyridin-3-yl]-2-(trifluoromethoxy)phenyl}propane-1-sulfonamide], the values for the IC50 in assay [1] and in assay [2] were 250 to 1000 nM and 2.5 to 20 nM, respectively.

In the case of `CCOc1cc2ncc(-c3cc(F)nc(NCCCO)c3)n2cc1S(=O)(=O)C(C)C` [Example 243, 3-({4-[7-ethoxy-6-(propane-2-sulfonyl)imidazo[1,2-a]pyridin-3-yl]-6-fluoropyridin-2-yl}amino)propan-1-ol], the IC50 was less than 50 nM in assay [1] and less than 1 nM in assay [2] (setting [3]).

With `CCCS(=O)(=O)Nc1cc(OC)cc(-c2cnc3cc(OCC)c(S(=O)(=O)C(C)C)cn23)c1` [Example 132, N-{3-[7-ethoxy-6-(propane-2-sulfonyl)imidazo[1,2-a]pyridin-3-yl]-5-methoxyphenyl}propane-1-sulfonamide], the concentration for half-maximal inhibition (IC50) in assay [1] is 50 to 250 nM; in assay [2] (setting [3]), less than 1 nM.

Take `CCCS(=O)(=O)Nc1cc(-c2cnn3ccc(S(=O)(=O)C(C)(C)C)cc23)ccc1OC` [Example 281, N-(5-(5-(tert-butylsulfonyl)pyrazolo[1,5-a]pyridin-3-yl)-2-methoxyphenyl)propane-1-sulfonamide]: the values for the IC50 in assay [1] and in assay [2] were 250 to 1000 nM and 2.5 to 20 nM, respectively.

Regarding `COc1cc2ncc(-c3ccc(S(N)(=O)=O)cc3)n2cc1S(=O)(=O)C(C)(C)C` [Example 152, 4-(6-(tert-butylsulfonyl)-7-methoxyimidazo[1,2-a]pyridin-3-yl)benzenesulfonamide], the IC50 in assay [1] was more than 1000 nM; in assay [2] (setting [3]), more than 20 nM.

On to `COc1cc2ncc(-c3cc(F)nc(NCC(C)(C)O)c3)n2cc1C(=O)N(C)C` [Example 249, 3-{2-fluoro-6-[(2-hydroxy-2-methylpropyl)amino]pyridin-4-yl}-7-methoxy-N,N-dimethylimidazo[1,2-a]pyridine-6-carboxamide], for which the figures for the IC50 in assay [1] and in assay [2] (setting [3]) were 250 to 1000 nM and more than 20 nM, respectively.

Consider `CCCS(=O)(=O)Nc1cc(-c2cnc3cc(OC)c(S(=O)(=O)C(C)(C)C)cn23)cc(F)c1OC` [Example 275, N-(5-(6-(tert-butylsulfonyl)-7-methoxyimidazo[1,2-a]pyridin-3-yl)-3-fluoro-2-methoxyphenyl)propane-1-sulfonamide], for which the concentration for half-maximal inhibition (IC50) was less than 50 nM in assay [1] and less than 1 nM in assay [2].

For `COc1cc(-c2cnc3cc(OC)c(S(=O)(=O)C(C)(C)C)cn23)ccc1N` [Example 87, 4-(6-(tert-butylsulfonyl)-7-methoxyimidazo[1,2-a]pyridin-3-yl)-2-methoxyaniline], the results for the IC50 in assay [1] and in assay [2] were more than 1000 nM and 2.5 to 20 nM, respectively.

Take `CCCS(=O)(=O)Nc1c(F)c(-c2cnc3cc(OC)c(S(=O)(=O)C(C)(C)C)cn23)cc(F)c1OC` [Example 263, N-(3-(6-(tert-butylsulfonyl)-7-methoxyimidazo[1,2-a]pyridin-3-yl)-2,5-difluoro-6-methoxyphenyl)propane-1-sulfonamide]: the IC50 in assay [1] lay within 250 to 1000 nM; in assay [2], 2.5 to 20 nM.

Take `CCOc1cn2ncc(-c3cc(F)c(N)nc3F)c2cc1S(=O)(=O)C(C)(C)C` [Example 115, 5-(5-(tert-butylsulfonyl)-6-ethoxypyrazolo[1,5-a]pyridin-3-yl)-3,6-difluoropyridin-2-amine]: the half-inhibitory concentration (IC50) in assay [1] was 250 to 1000 nM; in assay [2] it was 2.5 to 20 nM.

Consider `COc1cc(-c2cnc3cc(OC)c(S(=O)(=O)C(C)(C)C)cn23)c(F)cc1N` [Example 90, 4-(6-(tert-butylsulfonyl)-7-methoxyimidazo[1,2-a]pyridin-3-yl)-5-fluoro-2-methoxyaniline], for which the IC50 was 250 to 1000 nM in assay [1] and 2.5 to 20 nM in assay [2].
